Results taken from article PMC5393024, “Discovery and characterization of natural tropolones as inhibitors of the antibacterial target CapF from Staphylococcus aureus” (Scientific Reports, 2015).
Where two headings read alike, the source gives them in different places.

Assays:
[1] = molecular target: holo-CapF (reconstituted with Zn^2+) (Staphylococcus aureus, UniProt A0A0H3JP37); assay: ITC binding to CapF reconstituted with Zn2+ (holo-CapF)
Description: Because tropolone and its analogs have been described as metal chelators in proteins, we anticipated that binding of the inhibitor to CapF is governed by the Zn^2+ ion present in the cupin domain[12]. To confirm this hypothesis, we performed two different types of experiments. First, we determined the binding properties of 3-isopropenyl-tropolone to apo-CapF (i.e. Zn^2+-depleted CapF) and to holo-CapF (reconstituted with Zn^2+) by isothermal titration calorimetry (ITC). The stoichiometry is consistent with a 1:1 binding model.
Figure 3 Binding of 3-isopropenyl-tropolone to CapF requires Zn^2+. CapF (150 μM) reconstituted with Zn^2+ was titrated with 1.65 mM inhibitor in the absence (a) or the presence (b) of 1 mM EDTA. The upper panels correspond to the titration data, and the lower panels to the integrated binding isotherms. (c) Binding competition assay. CapF (1.0 μM) reconstituted with Zn^2+ in the presence of the Zn^2+-sensitive dye FluoZin-3 (1.0 μM) was titrated with 3-isopropenyl-tropolone (λEX = 490 nm; λEM = 520 nm).
Binding constants and thermodynamic parameters of the interaction between CapF and fragment compounds were determined with an iTC200 instrument (GE Healthcare) at 25 °C. Samples were equilibrated in a buffer composed of 10 mM HEPES (pH 7.4) and 150 mM NaCl supplemented with 5% (v/v) DMSO. CapF at 150–270 μM was titrated with compounds at 0.5–1.65 mM. Analysis of the data was performed with ORIGIN7 using a one-site binding model.
Figure S8. Binding isotherms of compounds with CapF as determined by ITC. (a) tropone, (b) 2-Cl-tropone, (c) tropolone, (d) 4-isopropyl-tropolone. Concentration of CapF in the cell was 150 µM, except in panel (a) where it was 270 µM. Concentration of compounds was 1.65 mM, except in panel (a) where it was 0.5 mM. Titrations were performed in an iTC200 instrument at 25 °C.
Data analysis was carried out with ORIGIN.

CapF [2] = assay: NADPH consumption assay (absorbance at 340 nm); assay type: biochemical, Staphylococcus aureus; details: 0.02 μM CapF, 1.0 μM CapE, 125 μM UDP-D-GlcNAc, 250 μM NADPH, 37 °C
Procedure: A second assay monitoring the consumption of NADPH corroborates the inhibitory effect of 3-isopropenyl-tropolone (Fig. 2c). This assay is sensitive to the NADPH consumed by the SDR domain during the second reaction catalyzed by CapF (reduction step). […] Nevertheless, additional experiments were required to corroborate that idea (see below).
The enzymatic performance of CapF was evaluated by examining the consumption of NADPH spectrophotometrically, or by monitoring the disappearance of substrate and the formation of product by HPLC[9][12]. First, the time-dependent consumption of NADPH (monitored from a decrease of adsorption at 340 nm) was carried out in 384-well plates at a final volume of 50 μL. The solution contained 1.0 μM CapE, 0.02 μM CapF, 125 μM UDP-D-GlcNAc (substrate), 250 μM NADPH and fragment compounds at various concentrations in HBS supplemented with 0.005% (v/v) Tween-20 and 5% (v/v) DMSO. Each reaction mixture was incubated at 37 °C and the absorption at 340 nm was measured with a plate reader (PHERAstar, BMG Labtech, Durham, NC).
Figure S7. (a) Structure of compounds employed. (b-d) Time course of NADPH consumption by CapF in the presence of (b) tropolone, (c) 4-isopropyl-tropolone, and (d) 2-Cl-tropone. Increasing the concentration of compounds decreases the rate of consumption of NADPH. (e-g) Inhibition after two hours for (e) tropolone, (f) 4-isopropyl-tropolone, and (g) 2-Cl-tropone. Concentration of CapE and CapF was 1.0 µM and 0.02 µM, respectively. Concentration of NADPH and UDP-D-GlcNAc was 250 µM and 125 µM, respectively. The change of absorbance was calculated with respect to a control assay in the absence of CapF.
(1 picture or pasted object on this page, not shown here)

CapF [3] = details: cited from earlier work

holo-CapF (reconstituted with Zn^2+), sequence (A0A0H3JP37 entry or part of it): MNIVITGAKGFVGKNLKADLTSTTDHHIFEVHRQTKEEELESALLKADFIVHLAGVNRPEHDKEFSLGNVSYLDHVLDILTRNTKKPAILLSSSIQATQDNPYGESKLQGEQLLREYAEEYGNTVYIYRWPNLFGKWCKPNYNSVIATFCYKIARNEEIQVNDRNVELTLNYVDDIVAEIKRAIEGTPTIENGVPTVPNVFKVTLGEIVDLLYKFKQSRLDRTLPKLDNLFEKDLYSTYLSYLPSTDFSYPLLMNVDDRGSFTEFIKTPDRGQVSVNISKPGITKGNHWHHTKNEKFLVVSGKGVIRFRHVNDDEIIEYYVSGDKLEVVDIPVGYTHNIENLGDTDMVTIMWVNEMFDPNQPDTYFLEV

O=c1cccccc1Cl [2-Cl-tropone]
binding to CapF by ITC ([1]; ITC, 25 °C): not detected | inhibition of NADPH consumption (CapF [2]): did not significantly inhibit

CC(C)c1cccc(=O)c(O)c1 [4-isopropyl-tropolone]
Kd ([1]; ITC, 25 °C, 10 mM HEPES pH 7.4, 150 mM NaCl, 5% DMSO, one-site model, read-out: KD): 1800 µM | Kd ([1]; ITC, 25 °C, read-out: KD): 1800 µM | n (binding stoichiometry) ([1]; ITC, stoichiometry was fixed to n = 1 in the fit): 1.0 | inhibition of NADPH consumption (CapF [2]): inhibited the consumption of NADPH in a concentration-dependent basis

O=c1cccccc1O [tropolone]
Kd [1]: 38 ± 7 µM | n (binding stoichiometry) ([1]; ITC, 25 °C): 1.1 ± 0.2 | ΔH° ([1]; ITC, 25 °C): -12.1 ± 3.3 kJ/mol | −TΔS° ([1]; ITC, 25 °C): -13.4 ± 4.18 kJ/mol | ligand efficiency (LE = −ΔG/HAC) ([1]; from ITC binding free energy): 2.8 kJ/mol | inhibition of NADPH consumption (CapF [2]): inhibited the consumption of NADPH in a concentration-dependent basis

O=c1cccccc1 [tropone]
binding to CapF by ITC ([1]; ITC, 25 °C): not detected | inhibition of NADPH consumption (CapF [2]): did not significantly inhibit

NADPH
Kd (CapF [3]): 1.6 µM
